Literature values, collected in patent publication US20050250838A1, “Formulation for sustained delivery” (priority 2004, published 2005).
Where a name gives a salt, the structure may show the parent alone. Each block holds one compound with its values, some of them ahead of it.

Columns and labels:
[1] = at 6 weeks

solubility (at room temperature (U.S. Pat. No. 6,660,298)): up to 75 mg/ml
Compound: Fc1ccc([C@@H]2CCNC[C@H]2COc2ccc3c(c2)OCO3)cc1 [amorphous paroxetine hydrochloride, paroxetine hydrochloride]

Compound: CNCCC(Oc1ccc(C(F)(F)F)cc1)c1ccccc1 (stereo not drawn) [fluoxetine]
response [1]: about 50%

solubility in water (water): 6000 to 12000 µg/mL
Compound: Fc1ccc([C@@H]2CCNC[C@H]2COc2ccc3c(c2)OCO3)cc1 [paroxetine hydrochloride hemihydrate]
